Experiment [1] concerns the target Angiotensin-converting enzyme (Homo sapiens, UniProt P12821). The experiment in a line: Concentration required to inhibit the activity of Angiotensin I converting enzyme by 50%. The format is protein assay, Cavia porcellus.
Experiment [2] has as its system Rattus norvegicus. Put plainly: Change in mean aortic blood pressure in the conscious renal hypertensive rat after oral administration of 30 mg/kg. The format is functional, Artery.
Experiment [3] concerns Rattus norvegicus. The experiment in a line: Maximum effect of 30 mg/kg administered orally on mean aortic blood pressure in the conscious renal hypertensive rat. The format is functional, Artery. The following applies: route oral.
In experiment [4] the test system is Rattus norvegicus. Put plainly: Time required after administration of 3 mg/kg of compound po, for the AI response to return to 70% of the pretreatment control response. The format is functional.
The test system of experiment [5] is Rattus norvegicus. Put plainly: Maximum effect of 3 mg/kg of compound administered orally on mean aortic blood pressure in the conscious renal hypertensive rat. In kind it is functional, Artery. The settings on record: route oral.
The subject of experiment [6] is Rattus norvegicus. The experiment in a line: Maximum inhibition of the angiotensin I challenge at 0.3 mg/kg, po, in conscious, normotensive rats. The format is functional.
The test system of experiment [7] is Rattus norvegicus. Put plainly: Maximum inhibition of the angiotensin I challenge at 3 mg/kg, po, in conscious, normotensive rats. The format is functional.
In experiment [8] the test system is Rattus norvegicus. Put plainly: Maximum inhibition of the angiotensin I challenge at 0.03 mg/kg, po, in conscious, normotensive rats. The format is functional.
Experiment [9] has as its system Rattus norvegicus. Put plainly: Time required after administration of 0.3 mg/kg of compound po, for the AI response to return to 70% of the pretreatment control response. The format is functional.
In experiment [10] the test system is Rattus norvegicus. The experiment in a line: Change in mean aortic blood pressure in the conscious renal hypertensive rat after oral administration of 0.3 mg/kg. The format is functional, Artery.
Experiment [11] concerns Rattus norvegicus. Put plainly: Time required after administration of 0.03 mg/kg of compound po, for the AI response to return to 70% of the pretreatment control response. In kind it is functional.
Experiment [12] deals with Rattus norvegicus. Put plainly: Maximum effect of 0.3 mg/kg of compound administered orally on mean aortic blood pressure in the conscious renal hypertensive rat. In kind it is functional, Artery. The settings on record: route oral.
Experiment [13] relates to Rattus norvegicus. Put plainly: Change in mean aortic blood pressure in the conscious renal hypertensive rat after oral administration of 3 mg/kg. In kind it is functional, Artery.
Experiment [14] relates to Rattus norvegicus. The experiment in a line: Time required after administration of 30 mg/kg of compound po, for the AI response to return to 70% of the pretreatment control response. In kind it is functional.
Experiment [15] has as its system Rattus norvegicus. Put plainly: Maximum inhibition of the angiotensin I challenge at 30mg/kg, po in conscious, normotensive rats. The format is functional.
In experiment [16] the test system is Rattus norvegicus. The experiment in a line: Time required after administration of 3 mg/kg of compound iv, for the AI response to return to 70% of the pretreatment control response. In kind it is functional.
In experiment [17] the test system is Rattus norvegicus. The experiment in a line: Maximum inhibition of the angiotensin I challenge at 3 mg/kg, iv, in conscious, normotensive rats. The format is functional.

Angiotensin-converting enzyme, sequence (P12821 whole entry): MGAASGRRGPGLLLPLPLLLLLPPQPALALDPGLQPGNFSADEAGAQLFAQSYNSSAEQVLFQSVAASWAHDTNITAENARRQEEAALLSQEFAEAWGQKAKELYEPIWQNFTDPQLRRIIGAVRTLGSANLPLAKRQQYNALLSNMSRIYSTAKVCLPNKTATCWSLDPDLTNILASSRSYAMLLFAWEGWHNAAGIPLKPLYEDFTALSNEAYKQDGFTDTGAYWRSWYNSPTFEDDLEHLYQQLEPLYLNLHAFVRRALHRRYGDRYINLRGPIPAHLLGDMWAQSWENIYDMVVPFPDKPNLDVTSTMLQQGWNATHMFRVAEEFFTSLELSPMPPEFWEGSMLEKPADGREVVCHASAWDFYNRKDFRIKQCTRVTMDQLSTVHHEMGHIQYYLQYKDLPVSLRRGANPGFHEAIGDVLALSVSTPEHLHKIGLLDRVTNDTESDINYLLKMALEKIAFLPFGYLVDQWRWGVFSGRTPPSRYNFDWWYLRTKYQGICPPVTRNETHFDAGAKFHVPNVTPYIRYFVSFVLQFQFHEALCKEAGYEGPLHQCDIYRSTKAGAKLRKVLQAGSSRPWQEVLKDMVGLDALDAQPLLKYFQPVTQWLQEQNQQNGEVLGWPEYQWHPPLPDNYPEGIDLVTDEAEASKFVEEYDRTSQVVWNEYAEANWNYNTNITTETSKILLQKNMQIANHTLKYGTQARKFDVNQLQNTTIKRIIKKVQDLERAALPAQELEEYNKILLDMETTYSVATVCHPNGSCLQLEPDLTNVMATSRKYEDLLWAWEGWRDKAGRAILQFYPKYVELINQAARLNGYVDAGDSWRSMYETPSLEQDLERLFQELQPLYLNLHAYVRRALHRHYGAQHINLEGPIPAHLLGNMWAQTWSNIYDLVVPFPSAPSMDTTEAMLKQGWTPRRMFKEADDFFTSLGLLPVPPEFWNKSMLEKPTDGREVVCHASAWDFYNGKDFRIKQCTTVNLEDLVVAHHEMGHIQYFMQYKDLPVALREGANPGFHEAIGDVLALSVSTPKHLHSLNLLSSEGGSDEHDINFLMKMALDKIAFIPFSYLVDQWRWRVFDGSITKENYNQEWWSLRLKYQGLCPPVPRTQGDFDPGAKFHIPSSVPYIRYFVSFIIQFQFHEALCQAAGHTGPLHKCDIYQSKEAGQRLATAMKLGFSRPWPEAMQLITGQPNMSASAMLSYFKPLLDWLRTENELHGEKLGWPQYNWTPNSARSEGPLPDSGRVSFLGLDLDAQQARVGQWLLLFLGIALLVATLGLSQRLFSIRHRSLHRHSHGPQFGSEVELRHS

On to `O=C(NC(Cc1ccccc1)C(=O)CCC(=O)N1CCCC1)c1ccccc1` (centres undefined), for which, in [1], the IC50 result was “Not Active”.

For `CC(=O)NC(Cc1ccccc1)C(=O)CCC(=O)N1CCC[C@H]1C(=O)O` (some centres undefined), in the experiment with Rattus norvegicus [2], the Change is -26 mmHg. Further, the “Mean aortic blood pressure at maximum effect” value (“Mean aortic blood pressure” below) in the experiment with Rattus norvegicus [3] turned out to be 176 mmHg.

For `Cc1ccccc1C(=O)NC(Cc1ccccc1)C(=O)CCC(=O)N1CCC[C@H]1C(=O)O` (some centres undefined), in the experiment on Rattus norvegicus [2], the Change is -15 mmHg. In the experiment with Rattus norvegicus [3], the “Mean aortic blood pressure” value amounted to 188 mmHg.

On to `C[C@H](CS)C(=O)N1CCC[C@H]1C(=O)O` [CAPTOPRIL], for which the AI recovery time in the experiment with Rattus norvegicus [4] is recorded as >240 min; in the experiment on Rattus norvegicus [9] it was 170 min; in the experiment on Rattus norvegicus [11], 80 min. For the same compound, the Max effect with Rattus norvegicus [5] stood at 99 mmHg; in the experiment with Rattus norvegicus [12] it was 170 mmHg. Further, the figures for the Max inhibition with Rattus norvegicus [6], in the experiment on Rattus norvegicus [7] and in the experiment with Rattus norvegicus [8] were 69%, 95% and 16%, respectively. Besides, the Change with Rattus norvegicus [2] is listed as -101 mmHg; in the experiment on Rattus norvegicus [10], -19 mmHg; in the experiment on Rattus norvegicus [13], -93 mmHg. The “Mean aortic blood pressure” value in the experiment with Rattus norvegicus [3] is listed as 85 mmHg.

Compound `COC(=O)[C@@H]1CCCN1C(=O)CCC(=O)C(Cc1ccccc1)NC(=O)c1ccccc1` (some centres undefined) registered a Max effect with Rattus norvegicus [5] of 165 mmHg. Besides, the Change is -11 mmHg in the experiment with Rattus norvegicus [2] and -34 mmHg in the experiment with Rattus norvegicus [13]. Further, in the experiment on Rattus norvegicus [3], the “Mean aortic blood pressure” value is 142 mmHg.

With `O=C(NC(Cc1ccccc1)C(=O)CCC(=O)N1CCC[C@H]1C(=O)O)c1ccco1` (some centres undefined), the Change in the experiment with Rattus norvegicus [2] is on record as -1 mmHg. The results for the AI recovery time in the experiment with Rattus norvegicus [14] and in the experiment with Rattus norvegicus [16] were 84 min and 52 min, respectively. Moreover, the Max inhibition in the experiment with Rattus norvegicus [15] is 32%; in the experiment with Rattus norvegicus [17] it was 84%. Further, in the experiment on Rattus norvegicus [3], the “Mean aortic blood pressure” value was found to be 184 mmHg.

For the compound `O=C(NC(Cc1ccc(OCc2ccccc2)cc1)C(=O)CCC(=O)N1CCC[C@H]1C(=O)O)c1ccccc1` (some centres undefined), the Change in the experiment with Rattus norvegicus [2] is listed as -5 mmHg. The “Mean aortic blood pressure” value in the experiment with Rattus norvegicus [3] worked out at 195 mmHg.

Take `O=C(NC(Cc1cccnc1)C(=O)CCC(=O)N1CCC[C@H]1C(=O)O)c1ccccc1` (some centres undefined): in the experiment on Rattus norvegicus [2], the Change was -20 mmHg. Besides, the “Mean aortic blood pressure” value in the experiment on Rattus norvegicus [3] came out at 184 mmHg.

For `COc1ccc(CC(NC(=O)c2ccccc2)C(=O)CCC(=O)N2CCC[C@H]2C(=O)O)cc1OC` (some centres undefined), the Change with Rattus norvegicus [2] is reported as -5 mmHg. Further, the results for the AI recovery time in the experiment with Rattus norvegicus [14] and in the experiment with Rattus norvegicus [16] were 5 min and 24 min, respectively. For the same compound, the Max inhibition with Rattus norvegicus [15] was 33%; with Rattus norvegicus [17] it was 74%. The “Mean aortic blood pressure” value in the experiment on Rattus norvegicus [3] came to 174 mmHg.

Turning to `O=C(NC(Cc1ccc(O)cc1)C(=O)CCC(=O)N1CCC[C@H]1C(=O)O)c1ccccc1` (some centres undefined), in the experiment with Rattus norvegicus [2], the Change is -23 mmHg. The figures for the AI recovery time with Rattus norvegicus [14] and in the experiment on Rattus norvegicus [16] were 24 min and 34 min, respectively. In addition, the Max inhibition stood at 46% with Rattus norvegicus [15] and 82% with Rattus norvegicus [17]. Besides, the “Mean aortic blood pressure” value with Rattus norvegicus [3] is 172 mmHg.

Turning to `O=C(NC(Cc1ccccc1)C(=O)CCC(=O)N1CCC[C@H]1C(=O)O)OCc1ccccc1` (some centres undefined), in the experiment with Rattus norvegicus [2], the Change is reported as -22 mmHg. Further, the “Mean aortic blood pressure” value with Rattus norvegicus [3] stood at 175 mmHg.

In the case of `O=C(CCC(=O)C(Cc1ccccc1)NC(=O)c1ccccc1)NC(Cc1ccccc1)C(=O)OCc1ccccc1` (centres undefined), in the experiment with Rattus norvegicus [2], the Change was -5 mmHg. Besides, the “Mean aortic blood pressure” value in the experiment on Rattus norvegicus [3] was 182 mmHg.

Regarding `O=C(NC(Cc1ccccc1)C(=O)CCC(=O)N1CC(O)C[C@H]1C(=O)O)c1ccccc1` (some centres undefined), the Change with Rattus norvegicus [2] was -20 mmHg. The “Mean aortic blood pressure” value with Rattus norvegicus [3] was found to be 168 mmHg.

With `O=C(NC(Cc1cccnc1)C(=O)CCC(=O)N1CCC[C@H]1C(=O)OCc1ccccc1)c1ccccc1` (some centres undefined), the Change with Rattus norvegicus [2] is given as -32 mmHg. For the same compound, in the experiment with Rattus norvegicus [3], the “Mean aortic blood pressure” value came out at 159 mmHg.

On to `O=C(N[C@@H](Cc1ccccc1)C(=O)CCC(=O)N1CCC[C@H]1C(=O)O)c1ccccc1`, for which the Change in the experiment with Rattus norvegicus [2] is on record as -12 mmHg. Moreover, the AI recovery time with Rattus norvegicus [14] is listed as 49 min; in the experiment on Rattus norvegicus [16] it was 34 min. Also, the Max inhibition is given as 48% with Rattus norvegicus [15] and 57% with Rattus norvegicus [17]. Besides, in the experiment on Rattus norvegicus [3], the “Mean aortic blood pressure” value turned out to be 178 mmHg.

On to `O=C(CCC(=O)N1CCC[C@H]1C(=O)O)C(Cc1ccccc1)NC(=O)C1CCCO1` (some centres undefined), for which, in the experiment with Rattus norvegicus [2], the Change is on record as -23 mmHg. Moreover, the AI recovery time with Rattus norvegicus [14] was determined as 10 min. The figures for the Max inhibition with Rattus norvegicus [15] and in the experiment with Rattus norvegicus [17] were 24% and 64%, respectively. In the experiment on Rattus norvegicus [3], the “Mean aortic blood pressure” value was determined as 163 mmHg.

Take `Cc1ccccc1C(=O)NC(Cc1ccccc1)C(=O)CCC(=O)N1CCC[C@H]1C(=O)OCc1ccccc1` (some centres undefined): the Change with Rattus norvegicus [2] is given as -20 mmHg. Further, the “Mean aortic blood pressure” value in the experiment with Rattus norvegicus [3] worked out at 175 mmHg.
